# Key:
# [1] = cited from earlier work
# R0052 probiotic strain = assay: Microbiological test, CFU count in Petri dish with SAMe; type: cell-based, Lactobacillus helveticus; details: SAMe marketed formulation 500 mg dose, vs probiotic strain only
# Protocol: (§1) 1.2 MICROBIOLOGICAL TEST: within the bio-compatibility study a microbiological evaluation was carried out. R0052 and R0175 probiotic strains were cultured in a Petri dish, in the presence of the active (SAMe, marketed formulation) at a 500 mg dose (as above). A sample was also analyzed as a reference of probiotic strain only, so that it could be compared with the addition of the active on the result in Colony-Forming Units (CFU). […] This is easily justified by the simple analytical error, known in the microbiological field.
# [2] = test system: Lactobacillus helveticus R0052; assay: Liquid compatibility method (pH monitoring of strain growth with SAMe); type: cell-based
# Protocol: The study was carried out in a first phase with SAMe+Lactobacillus helveticus R0052, not microencapsulated, through a liquid compatibility method. The initial population tested was 15.10^E9 CFU/g units at 500 mg of SAMe. For this evaluation a pHmeter with 8 probes was used, and values were verified every 15 minutes.
# The strains are inoculated into a liquid medium suitable for their growth, only under […] conditions (reason why in this way the Bifidobacterium is not tested), and the active substance is inoculated into the sample and not into the control.
# From an operational point of view: the vial is filled with the liquid medium (50 ml RCM); the active, which should have been tested directly in its granulated form in the vial, is added, and it is mixed. Then the pH of the medium in the presence of the active is verified, if necessary, the pH is adjusted so that it is comprised between 6.5 and 7. R0052 strain is therefore inoculated (batch U12171600, 500.10^E9 CFU/g) into the vial. The sample is diluted 1/100 with Dilumat to obtain a dilution to 5.10^E9 CFU/ml and finally it is inoculated with 3 ml into the 50 ml RCM vial, obtaining […]. The vial is placed in warm bath, at 37°, and the pH started to be recorded for 18 hours.
# R0175 probiotic strain = assay: Microbiological test, CFU count in Petri dish with SAMe; type: cell-based, Bifidobacterium longum; details: SAMe marketed formulation 500 mg dose, vs probiotic strain only
# Protocol: as §1
smiles,measurement,setting,value
"C[S+](CC[C@H](N)C(=O)O)C[C@H]1O[C@@H](n2cnc3c(N)ncnc32)[C@H](O)[C@@H]1O (some centres unmarked) [SAMe, S-adenosyl methionine]",Plasma levels of the unmodified molecule,[1]; oral intake,5-10 % of the administered dose
same,Plasma bioavailability,[1]; parenteral (intravenous or intramuscular) route,90-100 % of the administered dose
same,Modification of CFU count,R0052 probiotic strain,up to 5%
same,"pH of medium, R0052 in contact with SAMe, final","[2]; 500 mg SAMe, RCM medium, 37°, after pH decrease over 18 hours recording",4.2
same,"pH of medium, R0052 in contact with SAMe, initial","[2]; 500 mg SAMe, RCM medium, 37°, start of 18 hours recording",7.2
same,Compatibility of L. helveticus R0052 strain with SAMe,[2]; conclusion from acidification,compatible
same,pH of the active (SAMe) alone,"[2]; without strain, RCM medium, 37°, remains essentially unchanged",7-7.5
same,Modification of CFU count,R0175 probiotic strain,up to 5%

# — patent US20230330125A1, “ORAL COMPOSITION COMPRISING S-ADENOSYL METHIONINE AND A PROBIOTIC AND ITS USE FOR TREATING AND/OR PREVENTING MOOD DISORDERS” (Montefarmaco OTC S.p.A., priority 2020, published 2023)
